This is an account of results in patent publication US20130045890A1, “TEST FOR MALE FERTILITY” (Rigshospitalet Copenhagen University Hospital, priority 2010, published 2013).

“And” between values parts separate entries of the source, which are not always exact repeats. Identical values can stand only once. “Also recorded” adds a separate entry of the source. A value given as a limit tells only on which side of the number the result lay.

The subject of test [1] is human spermatozoa. Kind of test: Intracellular free calcium ([Ca2+]i) by single cell fura-2 imaging in human spermatozoa. Format: cell-based. Particulars: for effect of non-genomic VDR antagonist pretreatment on the calcium response to 1,25(OH)2D3: pretreatment 1-40 μM. As for the experimental part:
The intracellular free calcium concentration ([Ca2+]i) was measured in human spermatozoa from 12 normal men. Freshly delivered semen samples went through percoll density gradient centrifugation to optimize the number of spermatozoa expressing VDR and the metabolising enzymes. […] Subsequently 80 μl sperm content were diluted in 920 μl Krebs-Ringer buffer and were loaded on polynysine-coated chambers to minimize movement of the vital spermatozoa (Lab-Tek; Nalge Nunc International, USA).
Excitation was obtained by a Polychrome V illuminator from Till Photonics (Germany) and images were acquired using a Cool Snap CCD camera (Photometrics, USA) from Robert Scientific (Malaysia).
After background subtraction, ratio images were formed using MetaFluor software.
Semen samples were separated by percoll density gradient centrifugation to ensure viable and motile spermatozoa and resuspended in capacitating media for 1.5 hours. Afterwards, loaded with 3 μM of the fluorescent probe (intracellular calcium binding) fura-2/AM (Invitrogen, USA) for 30 min, centrifuged (10 min at 300 g) and washed with Krebs-Ringer buffer (120 mM NaCl, 15 mM NaHCO3, 5 mM KCl, 1 mM CaCl2, 5 mM Na2HPO4, 1 mM MgCl2 pH 7.3). […] Subsequently, 80 μl of the sperm sample was diluted in 920 μl Krebs-Ringer buffer and loaded on polylysine-coated chambers to minimize movement of the spermatozoa (Lab-Tek; Nalge Nunc International, USA). […] Excitation was obtained by a Polychrome Villuminator from Till Photonics (Germany) and images were acquired using a Cool Snap CCD camera (Photometrics, USA) from Robert Scientific (Malaysia). […] After background subtraction, ratio images were formed using MetaFluor software.
All experiments started by using low magnification to ensure visibility of several spermatozoa simultaneously. […] All measurements of [Ca2+]i were based upon evaluation of at least three spermatozoa simultaneously (see exact number in figure legends), and were repeated in at least three separate experiments. We used 10 different semen donors to ensure that all experiments were reproduced on semen samples from at least two different men.

For test [2], the system named is human spermatozoa. As to the kind of experiment: Acrosome reaction of motile spermatozoa (Pisum sativum agglutinin-FITC staining). In kind it is cell-based. How it is done:
Acrosome status was assessed according to a modified version of the method described by Cross et al. 1986. […] . When more than half the head of a spermatozoon was brightly and uniformly fluorescent, the acrosome was considered to be intact. Spermatozoa without fluorescence or with a fluorescing band limited to the equatorial segment were considered to be acrosome-reacted. Spermatozoa with a fluorescing band limited to the equatorial segment were named eq-AR. The person assessing the slides was blinded to the treatment of the sample.

In test [3] the test system is human spermatozoa. As to the kind of experiment: Induction of sperm motility (ABC motility) in semen samples in vitro. To be noted: for sperm motility (ABC) in young normal men: 1 nM 1,25(OH)2D3, p=0.01; for sperm motility in infertile/subfertile men: 1 nM 1,25(OH)2D3, p=0.80.
Procedure: The preparation was placed on the heating stage of a microscope at 37° C. and immediately examined at x400 magnification counting 200 spermatozoa. The sperm were classified as progressive motile (WHO class A+B), non-progressive motile (class C) or immotile (class D). The motility counting was repeated on a second aliquot of 10 μl well-mixed semen.
The participants produced a semen sample by masturbation. Self-reported information of duration of ejaculation abstinence was obtained. Trained technicians conducted semen analysis Semen volume was estimated by weighing. For sperm motility assessment, duplicates of 10 μl of well-mixed semen were placed on a glass slide, examined on a heating stage kept at 37° C., under a microscope at ×400 magnification, and spermatozoa were classified as progressive motile (WHO class A+B), non-progressive motile (class C) or immotile (class D). The average of the two motility assessments was used. For the assessment of the sperm concentration the samples were diluted in a solution of 0.6 mol/l NaHCO3 and 0.4% (v/v) formaldehyde in distilled water, and subsequently assessed using Bürker-Türk haemocytometer. Only spermatozoa with tails were counted. Finally, smears were prepared, Papanicolaou stained and spermatozoa morphology assessed according to strict criteria.
Their semen samples were assessed as described above. […] Motility assessment was conducted in 17 samples (in duplicates) under non-capacitating conditions (in their seminal plasma), and 3 samples were also analyzed in capacitating conditions. 7 consecutively included men were used to investigate a dose-response relationship between VD and sperm motility.
Setting [4] is: 1,25(OH)2D3 after pretreatment with nifedipine 10 μM.
[5] abbreviates: higher 1,25(OH)2D3 concentrations.

As to `C=C1/C(=C\C=C2/CCC[C@]3(C)[C@@H]([C@H](C)CCCC(C)(C)O)CC[C@@H]23)C[C@@H](O)C[C@H]1O` [1β, 25(OH)2D3], the “effect of non-genomic VDR antagonist pretreatment on the calcium response to 1,25(OH)2D3” value was “completely blocked; also recorded: abrogated the response to 1,25(OH)2D3 completely” in the test on human spermatozoa [1] (1 nM calcitriol) and “blocked completely” in the test on human spermatozoa [1] (1 nM calcitriol, listed as 1β,25(OH) 2D3).
For `COc1ccc2c(c1)CC[C@@H]1[C@@H]2CC[C@]2(C)[C@@H](NCCCCCCN3C(=O)C=CC3=O)CC[C@@H]12` [U73122, 1-[6-[[17fi-3-methoxyestra-1,3,5(10)-trien-17-yl]amino]hexyl]-1H-pyrrole-2,5-dione], in the test on human spermatozoa [1] (2 μM U73122, no concentration), the “effect on the calcium response to 1,25(OH)2D3” value is “unable to induce a rapid increase in [Ca2+]i; also recorded: caused a delayed and diminished response to 1,25(OH)2D3”. Further, the “effect on the rapid calcium increase elicited with 1 nM 1,25(OH)2D3” value in the test with human spermatozoa [1] (5 μM U73122) was “delayed in these spermatozoa and the amplitude was smaller or absent”. In addition, the “spermatozoa that remained low and stable in intracellular calcium” value with human spermatozoa [1] (5 μM U73122, normal calcium containing media) was 10-20%. In addition, in the test with human spermatozoa [1] (10 μM U73122), the “increase of baseline [Ca2+]i” value was “more than 5 fold” and the “spermatozoa that increased their baseline [Ca2+]i” value is greater than 80%. The “effect of PLC inhibition on the calcium effect of progesterone” value with human spermatozoa [1] (U73122) was “unable to abrogate the effect of progesterone”.
On to `C=C1/C(=C\C=C2/CCC[C@]3(C)[C@@H]([C@H](C)CCCC(C)(C)O)CC[C@@H]23)C[C@@H](O)C[C@@H]1O` [1,25(OH)2D3, 1,25-dihydroxyvitamin D3], for which the “median percentage of spermatozoa with an equatorial band (eq. AR)” value in the test on human spermatozoa [2] (1,25(OH)2D3 10^-9M (control 4.7%), p=0.214) is 5.3%. Besides, the “median percentage of acrosome reacted spermatozoa” value in the test with human spermatozoa [2] (1,25(OH)2D3 10^-9M, capacitating media (control 12%)) came out at 21%. In the test with human spermatozoa [2] (1,25(OH)2D3 10^-9M, capacitating media, p=0.024), the “average increase in acrosome reacted spermatozoa” value stood at 6%. In the test on human spermatozoa [2] (NaCl, 6 men, VD treated (control 3.7%)), the “acrosome reacted spermatozoa in non-capacitating conditions” value is reported as 4.2%. Besides, the “sperm motility (ABC) in young normal men” value in the test on human spermatozoa [3] was “increased significantly; also recorded: modest increase in sperm motility”; in the test on human spermatozoa [3] (listed as calcitriol), “significant increase in normal men”. For the same molecule, the entries for the “sperm motility in infertile/subfertile men” value with human spermatozoa [3], in the test with human spermatozoa [3] (listed as activated VD) and in the test on human spermatozoa [3] (listed as calcitriol) were “did not increase; also recorded: no increase in sperm motility”, “did not increase in sperm motility” and “unable to increase motility in infertile men”, respectively. Besides, in the test with human spermatozoa [3] (1,25(OH)2D3 10-14M to 10^-9M, dose-response, 7 men), the “increase in median sperm motility (ABC)” value is recorded as 2-7%. Also, the “median decrease in sperm motility compared with control” value in the test on human spermatozoa [3] (1,25(OH)2D3 10^-5M) stood at 15%. Besides, the “median increase in sperm motility (ABC)” value in the test on human spermatozoa [3] (1,25(OH)2D3 10^-9M, p=0.006) was found to be 7%. Moreover, in the test on human spermatozoa [3] (1,25(OH)2D3 concentrations above 10^-7M), the “sperm motility” value was “decreased motility compared with control”. Moreover, in the test on human spermatozoa [3] (10^-9M 1,25(OH)2D3, 30 min, room temperature, 17 men, p=0.010), the “increase in mean sperm motility” value stood at 2.9%. In addition, in the test with human spermatozoa [1], the “effect of pre-treatment with 1,25(OH)2D3 on the calcium effect of progesterone” value is listed as “could not be abrogated”. The “maximum amplitude of the calcium increase, higher than baseline calcium level” value in the test with human spermatozoa [1] (1 nM 1,25(OH)2D3) was 5-10 fold. Also, the “calcium response in non-capacitating media” value in the test with human spermatozoa [1] (1 nM 1,25(OH)2D3, versus capacitating media) was “lower amplitude”. In the test with human spermatozoa [1] (1,25(OH)2D3 (1 nM elsewhere in the source)), the “amplitude relative to the amplitude elicited by 10 μM progesterone” value was 40% and 40-80%. The “effect on intracellular calcium” value in the test with human spermatozoa [1] (1,25(OH)2D3, printed range 50 μM-10 μM, 100 μM-10 μM) was “induced a rapid increase in intracellular calcium”. In the test on human spermatozoa [1] (1,25(OH)2D3 added to motile spermatozoa, calcium containing medium), the “increase in intracellular calcium from baseline” value is given as 5-10 fold. Moreover, the “length of repolarisation phase” value with human spermatozoa [1] (setting [4]) came to 4 min. Further, the “maximum amplitude of calcium increase, higher than baseline” value in the test on human spermatozoa [1] (setting [4]) was 7 fold. For the same molecule, the “threshold for the observed all-or-nothing calcium response” value in the test with human spermatozoa [1] (1,25(OH)2D3 concentration) lay within 10 to 50 µM. The “duration of plateau phase” value in the test with human spermatozoa [1] (<10 nM 1,25(OH)2D3) is “up to 50 sec”; in the test with human spermatozoa [1] (setting [5]), 50 to 300 s. Moreover, in the test on human spermatozoa [1] (after addition of 1,25(OH)2D3), the “start of the calcium increase in the neck region” value is no more than 5 s. Also, the “increase in [Ca2+]i in calcium free media with EGTA (words)” value with human spermatozoa [1] (calcium free media, 5 μM EGTA) is “Neither, 1,25(OH)2D3 nor progesterone were able to induce an increase in intracellular calcium; also recorded: could not induce an increase in [Ca2+]i”. In addition, in the test with human spermatozoa [1] (setting [5]), the “dependence of amplitude on concentration” value was “did not seem to increase markedly with higher concentration; also recorded: did not increase with higher 1,25(OH)2D3 concentrations”. Besides, the “calcium response in calcium free media without EGTA” value with human spermatozoa [1] (potentially contaminated [Ca2+]<5 uM) is given as “marked response; also recorded: increased intracellular calcium rapidly”.
Take `C=C1/C(=C\C=C2/CCC[C@]3(C)[C@@H]([C@H](C)/C=C/[C@@H](O)C4(C(=O)OCCCC)CC4)CC[C@@H]23)C[C@@H](O)C[C@@H]1O` [ZK159222]: the “effect of nuclear VDR antagonist on the calcium response to 1,25(OH)2D3” value in the test on human spermatozoa [1] (ZK159222 0.1-100 μM, 1 nM calcitriol) is on record as “could not be abrogated; also recorded: unable to abrogate or suppress the effect of 1,25(OH)2D3 treatment”.
Turning to `C/C=C(/C)C(=O)O[C@H]1C(C)=C2[C@H]([C@@H]1OC(=O)CCCCCCC)[C@@](C)(OC(C)=O)C[C@H](OC(=O)CCC)[C@@]1(O)[C@H]2OC(=O)[C@@]1(C)O` [thapsigargin], the “effect on baseline calcium concentration” value with human spermatozoa [1] (thapsigargin 4 μM) is on record as “caused a slow increase in baseline calcium concentration”. Also, the “calcium response to 1,25(OH)2D3 after thapsigargin” value is listed as “unable to elicit a substantial calcium response; also recorded: diminished the effect of 1,25(OH)2D3” in the test with human spermatozoa [1] (thapsigargin 4 μM, 1,25(OH)2D3 added 9 min later) and “unable to abrogate the effect of 1,25(OH)2D3” with human spermatozoa [1] (thapsigargin <1 μM). Besides, the “stable plateau, higher than baseline calcium concentration” value with human spermatozoa [1] (thapsigargin 4 μM, nine minutes after exposure) is 3 fold.
Regarding `C=C1CC[C@H](O)C/C1=C/C=C1\CCC[C@]2(C)[C@@H]([C@H](C)CCCC(C)(C)O)CC[C@@H]12` [25-OH D3, 25-hydroxycholecalciferol], the “effect on intracellular calcium” value in the test on human spermatozoa [1] (25-OH D3 up to 100 nM, normal media) is “no effect on intracellular calcium levels”; in the test with human spermatozoa [1] (25-OH D3 up to 100 nM, normal media, listed as 25-0H D3), “unable to elicit an increase in [Ca2+]i”.
`C[C@H](CCC(=O)O)C[C@H](C)C[C@H](C)C(=O)/C=C(\O)[C@H](C)C[C@H](C)C/C=C/[C@@H](C)[C@@H](O)[C@@H](C)[C@@H](O)C[C@@H]1CC[C@@](C)([C@H]2CC[C@@](C)([C@@H](C)O)O2)O1` [ionomycin]: the “increase in [Ca2+]i in calcium free media with EGTA (words)” value in the test with human spermatozoa [1] (ionomycin 500 nM) is “low but significant increase in the intracellular calcium; also recorded: elicited only a small Ca2+ rise”; in the test on human spermatozoa [1] (ionomycin 500 nM, listed as Ionomycin), “low but reproducible increase in [Ca2+]i”. In the test on human spermatozoa [1] (ionomycin 500 nM, calcium free media with EGTA), the “amplitude of the response from baseline” value is listed as less than 3 fold.
Turning to `CC(=O)[C@H]1CC[C@H]2[C@@H]3CCC4=CC(=O)CC[C@]4(C)[C@H]3CC[C@]12C` [progesterone], the “increase in [Ca2+]i in calcium free media with EGTA (words)” value with human spermatozoa [1] (calcium free media, 5 μM EGTA) is “Neither, 1,25(OH)2D3 nor progesterone were able to induce an increase in intracellular calcium; also recorded: could not induce an increase in [Ca2+]i”.
